The text below walks through data of article PMC10094617, “Iron(III) Complexes with Non-Steroidal Anti-Inflammatory Drugs: Structure, Antioxidant and Anticholinergic Activity, and Interaction with Biomolecules” (International Journal of Molecular Sciences, 2023).

Structures can show the parent of a compound that is named as a salt.

What is called inhibition is the percentage by which the read-out fell short of the control.

One data set can be described thus: DPPH radical scavenging. Particulars: compound 0.1 mM, ethanol. It is filed as biochemical. The protocol: (§1) The antioxidant activity of complexes 1–3 was evaluated via their ability to scavenge the free radicals DPPH, hydroxyl, and ABTS. Each experiment was performed in triplicate and the standard deviation of absorbance was less than 10% of the mean.
Ethanol was also used as a control solution. The absorbance at 517 nm was recorded at room temperature, two times, after 20 and 60 min, in order to examine the time-dependence of the DPPH-scavenging activity. The DPPH-scavenging activity of the compounds was expressed as the percentage reduction of the absorbance values of the initial DPPH solution (RA%). The compounds NDGA and BHT were used as reference compounds.

The target in data set [1] is T1, electric eel acetylcholinesterase (eeAChE) (Electrophorus electricus, UniProt O42275).
T1 construct: purchased J&K Scientific Co. (Beijing, China)
T1 sequence (O42275 24-633): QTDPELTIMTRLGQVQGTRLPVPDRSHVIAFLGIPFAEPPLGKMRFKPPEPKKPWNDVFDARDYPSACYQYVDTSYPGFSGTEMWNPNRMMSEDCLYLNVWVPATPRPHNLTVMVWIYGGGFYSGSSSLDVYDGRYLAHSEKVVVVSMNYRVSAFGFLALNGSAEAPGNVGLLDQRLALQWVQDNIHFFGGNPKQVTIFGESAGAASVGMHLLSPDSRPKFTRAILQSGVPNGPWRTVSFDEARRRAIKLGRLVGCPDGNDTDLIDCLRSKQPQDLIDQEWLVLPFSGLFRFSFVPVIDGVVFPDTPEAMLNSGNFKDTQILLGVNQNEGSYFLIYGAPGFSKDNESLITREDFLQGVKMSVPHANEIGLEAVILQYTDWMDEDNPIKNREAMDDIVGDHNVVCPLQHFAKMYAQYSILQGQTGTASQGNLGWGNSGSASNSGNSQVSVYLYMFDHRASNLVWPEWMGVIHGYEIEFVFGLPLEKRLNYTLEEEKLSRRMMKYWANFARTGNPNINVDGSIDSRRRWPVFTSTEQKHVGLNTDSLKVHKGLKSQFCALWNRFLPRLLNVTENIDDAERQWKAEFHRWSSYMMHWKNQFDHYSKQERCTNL
The data set is described as follows: Inhibition of acetylcholinesterase (modified Ellman's method). The settings on record: 10^−3 M of the compound, pH 7.4, 37 °C; for inhibition at 1000 µM: read-out: AChE (I%) inhibition rate. It is filed as biochemical. Here is the method: (§2) In the study of cholinesterase inhibitors, the inhibitory effect of the compounds (the NSAIDs and their complexes 1–3) against AChE and BuChE was examined using a modified methodology based on Ellman’s method.
(§3) The ability of the compounds to inhibit AChE and BuChE was evaluated using UV-vis spectroscopy. All the assays were carried out in a 0.1M NaH2PO4/Na2HPO4 buffer at a pH = 7.4. Enzyme solutions were prepared with 2.0 U/mL for AChE and 3.0 U/mL for BuChE. A reaction mixture containing 20 μL of phosphate buffer, 100 μL of DTNB (1-mM), and 40 μL of the enzyme (AChE and BuChE) was incubated with 20 μL of the compounds at various concentrations at 37 °C for 15 min. The reaction was started by the addition of the substrate (20-μL) of ATCI or BTCI solution (1-mM), respectively, and incubation for additional 3 min.
(§4) The enzyme activity was determined by measuring the increase in absorbance at 2-min intervals at 412 nm at 37 °C (ε = 14,150 M^−1cm^−1).
The rate of inhibition of each enzyme by the compounds was calculated according to the following expression:(1) I%=(1−VB/VA)×100 where VB and VA indicate the absorbance measured for ChEs in the presence and absence of inhibitors, respectively. The results are expressed as the average of three repetitions of the tests performed and the standard deviation was less than 3% of the mean. The selectivity index (SI), defined as IC50 BuChE/IC50 AChE, was also calculated. Neostigmine methyl sulfate was used as the appropriate standard.

In data set [2] the target is T2, equine serum butyrylcholinesterase (eqBuChE) (Equus caballus, UniProt P81908).
T2 construct: purchased J&K Scientific Co. (Beijing, China); host or cells: equine serum (by the product's name)
T2 sequence (P81908 whole entry): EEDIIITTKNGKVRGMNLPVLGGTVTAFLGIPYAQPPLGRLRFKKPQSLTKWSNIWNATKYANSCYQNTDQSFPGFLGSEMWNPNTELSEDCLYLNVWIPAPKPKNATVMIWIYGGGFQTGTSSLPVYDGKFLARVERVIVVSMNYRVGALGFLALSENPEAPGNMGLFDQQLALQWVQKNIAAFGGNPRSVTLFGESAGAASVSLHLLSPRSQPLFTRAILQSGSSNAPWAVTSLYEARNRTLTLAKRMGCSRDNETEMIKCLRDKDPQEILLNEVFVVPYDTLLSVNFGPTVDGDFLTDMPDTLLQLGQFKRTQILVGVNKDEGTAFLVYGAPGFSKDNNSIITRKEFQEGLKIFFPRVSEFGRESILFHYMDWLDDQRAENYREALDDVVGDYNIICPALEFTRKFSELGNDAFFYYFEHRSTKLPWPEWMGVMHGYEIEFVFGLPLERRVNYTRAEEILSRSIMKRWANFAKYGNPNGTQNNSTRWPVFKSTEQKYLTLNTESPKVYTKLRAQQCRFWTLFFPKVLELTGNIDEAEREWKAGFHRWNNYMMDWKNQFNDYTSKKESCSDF
The data set is described as follows: Inhibition of butyrylcholinesterase (modified Ellman's method). It is filed as biochemical. Particulars: for inhibition at 1000 µM: read-out: BuChE (I%) inhibition rate; for SI (selectivity index = IBuChE/IAChE): ratio of inhibition rates at 10^−3 M. The protocol: as §2, §3, §4
The rate of inhibition of each enzyme by the compounds was calculated according to the following expression:(1) I%=(1−VB/VA)×100 where VB and VA indicate the absorbance measured for ChEs in the presence and absence of inhibitors, respectively. […] Neostigmine methyl sulfate was used as the appropriate standard.
For orientation: DTNB colorimetry detects thiols as they appear.

The nature of data set [3]: Competition with DMSO for hydroxyl radicals. Particulars: compound 0.1 mM; 30 min, 37 °C, pH 7.4. It is filed as biochemical. The protocol:
as §1
Competition of the tested compounds with DMSO for hydroxyl radicals: The hydroxyl radicals generated by the Fe^3+/ascorbic acid system were detected according to Nash by the determination of formaldehyde produced from the oxidation of DMSO [155]. The reaction mixture contained EDTA (0.1 mM), Fe^3+ (167 μM), DMSO (33 mM) in phosphate buffer (50 mM, pH 7.4), complexes 1–3 (concentration 0.1 mM), and ascorbic acid (10 mM). After a 30-min incubation at 37 °C, the reaction was stopped with CCl3COOH (17% w/v) and the absorbance at λ = 412 nm was measured. Trolox was used as a reference compound. The competition of the compounds with DMSO for •OH, generated by the Fe^3+/ascorbic acid system, expressed as the percentage of inhibition of formaldehyde production, was used for the evaluation of their hydroxyl radical-scavenging activity (OH%).

Data set [4] can be described thus: ABTS radical cation scavenging. It is filed as biochemical. The settings on record: compound 0.1 mM; 1 min after mixing. Here is the method:
as §1
Assay of radical cation scavenging activity (ABTS^+•): An ABTS cationic radical (ABTS^+•) was produced by reacting an aqueous stock solution (2 mM) of ABTS with 0.17-mM potassium persulfate and allowing the mixture to stand in the dark at room temperature for 12–16 h before use. […] Although the oxidation of ABTS commenced immediately, the absorbance became maximal and stable after 6 h. The radical was stable in this form for more than two days when stored in the dark at room temperature. The ABTS radical solution was diluted with ethanol to an absorbance of 0.70 at 734 nm. After the addition of 10 μL of complexes 1–3 or the standards (0.1 mM) in DMSO, the absorbance was recorded exactly 1 min after initial mixing. The radical scavenging activity of the complexes was expressed as the percentage inhibition of the absorbance of the initial ABTS solution (ABTS%). Trolox was used as a reference compound.

Another data set relates to EB–DNA adduct (CT DNA). The data set is described as follows: EB-displacement from EB–DNA adduct (fluorescence emission). It is filed as binding, calf. Here is the method:
EB-displacement studies: The competition of complexes 1–3 with EB was investigated by fluorescence emission spectroscopy in order to examine whether the complexes can displace EB from its DNA–EB conjugate. The DNA–EB conjugate was prepared by adding 20-μM EB and 26-μM CT DNA in the buffer solution (150-mM NaCl and 15-mM trisodium citrate at pH 7.0). The possible intercalating effect of the complexes was studied by the addition of a certain amount of a solution of the compound into a solution of the DNA–EB conjugate. The influence of each compound to the DNA–EB complex solution was obtained by recording the changes in the fluorescence emission spectra with the excitation wavelength (λex) at 540 nm.
The Stern–Volmer constant KSV is used to evaluate the quenching efficiency for each compound according to the Stern–Volmer equation (Equation (3)), where Io and I are the emission intensities in the absence and the presence of the quencher, respectively, and [Q] is the concentration of the quencher (i.e., complexes 1–3). The value of KSV is obtained from the Stern–Volmer plots by using the slope of the diagram Io/I versus [Q]. Taking τo = 23 ns as the fluorescence lifetime of the EB–DNA system, the EB–DNA quenching constants (Kq, in M^−1s^−1) of the compounds can be determined according to Equation (4).

Data set [5] in a line: Solubility of the complexes. In kind it is physicochemical.
Details of data set [6]: method as in PMID 8216032. Particulars: cited from earlier work.
The target in the next data set is calf-thymus (CT) DNA. More on the design: method as in PMID 3427013. Particulars: cited from earlier work.
Where [7] appears, read: 10^−3 M of the compound, pH 7.4, 37 °C.

With `Cc1cc(C(C)(C)C)c(O)c(C(C)(C)C)c1` [BHT, butylated hydroxytoluene], in the data set “DPPH radical scavenging”, the “DPPH% (DPPH scavenging ability), 20 min” value is 31.30 ± 0.10% and the “DPPH% (DPPH scavenging ability), 60 min” value is listed as 60.00 ± 0.38%.

Turning to `C[O-].C[O-].O.O=C([O-])c1cc(-c2ccc(F)cc2F)ccc1[O-].O=C([O-])c1cc(-c2ccc(F)cc2F)ccc1[O-].[Fe+3].[Fe+3].c1cnc2c(c1)ccc1cccnc12.c1cnc2c(c1)ccc1cccnc12` [Complex 1, [Fe2(difl)2(MeO)2(phen)2]∙H2O], the “AChE (I%) inhibition rate” value in [1] came to 1.77 ± 0.82%. The “BuChE (I%) inhibition rate” value in [2] (setting [7]) was determined as 79.25 ± 2.00%. Also, in “DPPH radical scavenging”, the “DPPH% (DPPH scavenging ability), 20 min” value worked out at 12.57 ± 0.29% and the “DPPH% (DPPH scavenging ability), 60 min” value worked out at 15.86 ± 0.62%. In addition, the “OH% (competition % with DMSO for hydroxyl radical)” value (“OH%” for short) in data set [3] was 91.08 ± 1.81%. In addition, the “ABTS% (ABTS radical scavenging activity)” value in data set [4] amounted to 85.38 ± 0.92%. In addition, the “KSV Stern–Volmer constant (EB–DNA)” value with EB–DNA adduct (CT DNA) (EB–DNA fluorescence) is reported as 6.37 (±0.40) × 10^5 M^−1. In addition, in the data set on EB–DNA adduct (CT DNA) ([EB] = 20 μM, [DNA] = 26 μM, λex 540 nm, λem 592 nm), the “ΔI/Io (%) EB–DNA fluorescence quenching” value is 66.8%. For the same compound, the “Kq quenching constant of the EB–DNA fluorescence” value with EB–DNA adduct (CT DNA) (τo = 23 ns) is given as 2.77 (±0.10) × 10^13 M^−1s^−1. For the same compound, the solubility result in [5] is “Soluble in DMF and DMSO”.

As to `O=C(O)c1cc(-c2ccc(F)cc2F)ccc1O` [Complex H2difl, Diflunisal], the inhibition at 1000 µM in [1] was found to be 17.2 ± 1.46%. Further, in [2] (setting [7]), the inhibition at 1000 µM turned out to be 22.9 ± 1.71%. Further, the “SI (selectivity index = IBuChE/IAChE)” value in data set [2] was 1.32. Further, in the data set “DPPH radical scavenging”, the “DPPH% (DPPH scavenging ability), 20 min” value is 10.42 ± 0.56% and the “DPPH% (DPPH scavenging ability), 60 min” value was found to be 14.31 ± 0.45%. The “OH%” value in [3] is on record as 86.06 ± 0.38%. Further, the “ABTS% (ABTS radical scavenging activity)” value in data set [4] worked out at 76.58 ± 0.74%. Moreover, in data set [6], the “half-life period of activity” value is on record as ~ 12 h.

For `CC[n+]1c(-c2ccccc2)c2cc(N)ccc2c2ccc(N)cc21.[Br-]` [EB, 3,8-diamino-5-ethyl-6-phenyl-phenanthridinium bromide], at calf-thymus (CT) DNA, the “Kb DNA-binding constant of the classical intercalator EB” value was 1.23 (±0.07) × 10^5 M^−1.

In the case of `CC(Cc1ccc(O)c(O)c1)C(C)Cc1ccc(O)c(O)c1` (centres unmarked) [NDGA, nordihydroguaiaretic acid], in “DPPH radical scavenging”, the “DPPH% (DPPH scavenging ability), 20 min” value is on record as 81.02 ± 0.18% and the “DPPH% (DPPH scavenging ability), 60 min” value came out at 82.60 ± 0.17%.

For `O=C(O)Cc1ccccc1Nc1c(Cl)cccc1Cl` [Nadicl, Sodium diclofenac], the inhibition at 1000 µM in [1] worked out at 10.3 ± 1.75%. The inhibition at 1000 µM in [2] (setting [7]) stood at 14.1 ± 0.12%. Moreover, in [2], the “SI (selectivity index = IBuChE/IAChE)” value was determined as 1.37. Also, in “DPPH radical scavenging”, the “DPPH% (DPPH scavenging ability), 20 min” value is 18.26 ± 0.60% and the “DPPH% (DPPH scavenging ability), 60 min” value is 17.43 ± 0.23%. In data set [3], the “OH%” value was found to be 75.46 ± 0.44%. Further, the “ABTS% (ABTS radical scavenging activity)” value in data set [4] is 76.35 ± 0.75%.

For the compound `CN(C)C(=O)Oc1cccc([N+](C)(C)C)c1` [Neo, Neostigmine methyl sulfate], the inhibition at 1000 µM came out at 96.98 ± 0.02% in data set [1] and 98.4 ± 1.55% in data set [2] (setting [7]). Besides, in [2], the “SI (selectivity index = IBuChE/IAChE)” value amounted to 1.01.

As for `Cc1c(C)c2c(c(C)c1O)CCC(C)(C(=O)O)O2` (centres unmarked) [Trolox, 6-hydroxy-2,5,7,8-tetramethylchromane-2-carboxylic acid, reference compound], the “OH%” value in [3] is 82.80 ± 0.13%. The “ABTS% (ABTS radical scavenging activity)” value in [4] is 91.8 ± 0.17%.
